Reference: patent publication US6251898A, “Medical use of fluorenone derivatives for treating and preventing brain and spinal injury” (Questcor Pharmaceuticals, Inc., priority 1999, dated 2001)

Tested on: UC11-MG human astrocytoma cells
Assay: D-aspartate (excitotoxin) release by hypo-osmotically stressed astrocytoma cells
Assay type: cell-based
Conditions: for IC50: Homo sapiens, UC11MG, hypo-osmotic stress, about 145 mOsm, AUC-based, read-out: IC50 value (suppression of excitotoxin / D-aspartate release by stressed astrocyte cells); for Comparative potency: relative to L-644,711 (100% = benchmark); for Fold potency versus L-644,711: inhibition of aspartate release, compared to L-644,711
Excerpt: The in vitro tests described in this example used UC11-MG human astrocytoma cells, obtained from the University of Cincinnati, and described in Liwnicz et al 1986 and Lomneth et al 1989. Cell culture reagents (including RPMI 1640, fetal bovine serum, trypsin, and gentamicin) were obtained from Gibco (Gaithersburg, Md.). Radiolabelled D-[2,3-^3 H]aspartate was obtained from Amersham Life Sciences (Buckinghamshire, England). ScintiVerse II scintillation fluid was obtained from Fisher Scientific (Pittsburgh, Pa.). All other chemicals were obtained from Sigma Chemical Co. (St. Louis, Mo.). Osmolarities of solutions were measured using the Advance DigiMatic Osmometer Model 3D II (Advanced Instruments Inc., Mass.).
The UC11-MG astrocytoma cells were cultured in 75 ml vented flasks at 37° C. inside a humidified incubator in 5% CO2 /95% air. The cells were grown in RPMI Medium 1640 supplemented with 10% fetal bovine serum and […] gentamicin. At approximately 90% confluence, the cells were detached and suspended using a 0.0625% trypsin solution in Buffer A (137 mM NaCl, 5.37 mM KCl, 5.55 mM glucose, 4.17 mM NaHCO3, and 0.54 mM EDTA disodium salt, pH 7.4). The cells were then plated onto 6-well tissue culture plates at a seeding ratio of 4 plates per flask and 4 ml of cell-media suspension per well. The plated cells were used in experiments the next day at approximately 90% confluence. Plates that appeared to be more than 95% confluent were not used, because higher levels of confluence led to uncontrollable differentials in exposure of the cells to culture media and labelled aspartate. All tests were performed in triplicate. All media collections were done at 5 minute intervals, using pipettes, and were followed by promptly loading fresh buffer into each well before any drying occurred. All buffer samples collected in this manner were loaded into scintillation vials, mixed with 5 ml scintillation fluid, and counted for 1 minute in a scintillation counter (Beckman LS8000, Fullerton, Calif.).
Prior to D-aspartate exposure, the wells were washed three times under sterile conditions with 3 ml of 37° C. Buffer B (122 mM NaCl, 3.3 mM KCl, 1.2 mM CaCl2, 0.4 mM MgSO4, 1.2 mM KH2 PO4, 25 mM Hepes, 10 mM glucose, pH 7.4).
The cells were then loaded with 0.5 μCi/ml of D-aspartate, and incubated at 37° C. for 30 min. Cells were then washed four times with Buffer B, and the last washing fluid was left on the cells. The plates were then placed on an orbital shaker and maintained at 37° C.
Baseline aspartate release levels (prior to drug treatment) were determined by incubating the cells with normal Buffer B (285 mOsm) for 15 minutes, while buffer was collected every 5 minutes.
After the buffer was collected from a well at the 15 minute mark, the next set of normal Buffer B added to that well contained a test compound at a known concentration; each compound was tested over a range of concentrations. Cells were then incubated for two 5 minute intervals with solutions of test compounds in normal Buffer B. In some tests which used buffers containing relatively high concentrations of a test drug with limited solubility in water, DMSO was added to the mixture to increase the solubility of the compound in water.
Beginning at the 25-minute mark, the cells were stimulated to begin releasing aspartate by loading a well with hypo-osmotic buffer, prepared by diluting Buffer B with an equal volume of distilled and deionized H2 O, resulting in an osmolarity of about 145 mOsm. This hypo-osmoticsolution caused the cells to begin taking in excess water, to try to reestablish the normal osmotic gradients that exist across the cell membranes. The water-induced swelling and stress then began to induce release of aspartate by the cells, and the amount of aspartate released by the swollen astrocyte cells was measured by removing the buffer every 5 minutes and testing it in a scintillation counter.

**Q.** For `CCC[C@]12CCC(=O)C=C1c1c(cc(OCC(=O)NCC(OC)OC)c(Cl)c1Cl)C2` [GERI-AmE1, R(+)-N-[2,2-(dimethoxy)-ethyl][(5,6-dichloro-2,3,9,9a-tetrahydro-3-oxo-9a-propyl-1H-fluoren-7-yl)oxy]acetamide], which IC50 is on record?
**A.** 19.4 µM

**Q.** And the Comparative potency?
**A.** 1,358%

**Q.** `CCC[C@]12CCC(=O)C=C1c1c(cc(OCC(=O)NCc3ccccc3)c(Cl)c1Cl)C2` [GERI-AmE3, R(+)-N-benzyl-[(5,6-dichloro-2,3,9,9a-tetrahydro-3-oxo-9a-propyl-1H-fluoren-7-yl)oxy]acetamide] was tested. Which IC50 did it give?
**A.** 31.9 µM

**Q.** And the Comparative potency?
**A.** 826%

**Q.** Which results are given for `CCC[C@]12CCC(=O)C=C1c1c(cc(OCC(=O)NCc3ccccn3)c(Cl)c1Cl)C2` [GERI-AmE4, R(+)-N-[(2-pyridylmethyl][5,6-dichloro-2,3,9,9a-tetrahydro-3-oxo-9a-propyl-1H-fluoren-7-yl)oxy]acetamide]?
**A.** IC50: 11.6 µM; Comparative potency: 2,272%

**Q.** For `CCC[C@]12CCC(=O)C=C1c1c(cc(OCC(=O)NCCCn3ccnc3)c(Cl)c1Cl)C2` [GERI-AmE5, R(+)-N-[3-(1-imidazolyl)-propyl][(5,6-dichloro-2,3,9,9a-tetrahydro-3-oxo-9a-propyl-1H-fluoren-7-yl)oxy]acetamide], which IC50 is on record?
**A.** 39.8 µM

**Q.** And the “Fold potency versus L-644,711” value?
**A.** ~7 fold

**Q.** And the Comparative potency?
**A.** 662%

**Q.** For `CCC[C@]12CCC(=O)C=C1c1c(cc(OCC(CO)(CO)CO)c(Cl)c1Cl)C2` [GERI-E1, R-(+)-5,6-dichloro-7-[3-hydroxy-2,2-bis-(hydroxymethyl)propyloxy]-9a-propyl-2,3,9,9a-tetrahydro-1H-fluoren-3-one], which IC50 is on record?
**A.** 29.5 µM

**Q.** And the Comparative potency?
**A.** 893%

**Q.** With `CCC[C@]12CCC(=O)C=C1c1c(cc(OCc3ccccc3C(=O)O)c(Cl)c1Cl)C2` [GERI-E3, Sodium R(+)-2-[(5,6-dichloro-2 3,9,9a-tetrahydro-3-oxo-9a-propyl-1H-fluoren-7-yl)oxymethyl]benzoate] as the compound, how does the IC50 read?
**A.** 7.9 µM

**Q.** And the Comparative potency?
**A.** 3,335%

**Q.** For `CCC[C@]12CCC(=O)C=C1c1c(cc(OCc3cccc(C(=O)O)c3)c(Cl)c1Cl)C2` [GERI-E4, Sodium R(+)-3-[(5,6-dichloro-2,3 9,9a-tetrahydro-3-oxo-9a-propyl-1H-fluoren-7-yl)oxymethyl]benzoate], which IC50 is on record?
**A.** 7.8 µM

**Q.** What about the “Fold potency versus L-644,711” value of the same compound?
**A.** ~34 fold

**Q.** And the Comparative potency?
**A.** 3,378%

**Q.** `CCC[C@]12CCC(=O)C=C1c1c(cc(OCc3ccc(C(=O)O)cc3)c(Cl)c1Cl)C2` [GERI-E5, Sodium R(+)-4-[(5,6-dichloro-2,3,9,9a-tetrahydro-3-oxo-9a-propyl-1H-fluoren-7-yl)oxymethyl]benzoate] was tested. Which IC50 did it give?
**A.** 8 µM

**Q.** And the Comparative potency?
**A.** 3,294%

**Q.** What does the source list for `CCC[C@]12CCC(=O)C=C1c1c(cc(OCOC(C)=O)c(Cl)c1Cl)C2` [GERI-E13, R-(+)-7-(acetoxymethoxy)-5,6-dichloro-9a-propyl-2,3,9,9a-tetrahydro-1H-fluoren-3-one]?
**A.** IC50: 19.2 µM; Comparative potency: 1,372%

**Q.** For `CCC[C@]12CCC(=O)C=C1c1c(cc(OC(C)=O)c(Cl)c1Cl)C2` [GERI-Est1, R-(+)-7-acetoxy-5,6-dichloro-9a-propyl-2,3,9,9a-tetrahydro-1H-fluoren-3-one], which IC50 is on record?
**A.** 13.9 µM

**Q.** And the Comparative potency?
**A.** 1,896%

**Q.** How did the IC50 turn out when `CCC[C@]12CCC(=O)C=C1c1c(cc(OCC(=O)O)c(Cl)c1Cl)C2` [L-644,711, R(+)-[(5,6-dichloro-2,3,9,9a-tetrahydro-3-oxo-9a-propyl-1H-fluoren-7-yl)oxy]acetic acid, reference compound] was run?
**A.** 264 µM
